Data reported in US7271187B2, “Compositions and methods for promoting tissue regeneration” (priority 2000, dated 2007).

How the values were obtained:
[1] = tested on: mixed embryonic day 18 (E18) rat neural cultures; test: Embryonic day 18 rat cortical culture, glutamate-killed neurons, immunostaining for neuronal markers; type: cell-based
Source text: The method of the invention is exemplified by a first embodiment wherein administration of a single in vitro dose of N-[4-[(4-fluorophenyl)sulfonyl]phenyl]-acetamide, a compound according to Formula (II), to a population of mixed embryonic day 18 (“E18”) rat neural cultures without living neurons results in a protein expression pattern within the culture that is indicative of development of neuronal cells from progenitor cells. The embryonic neural cultures are first subjected to glutamate excitotoxic exposure sufficient to result in neuronal cell death prior to administration of the compound. Cultures obtained from E18 rat embryos are allowed to mature in vitro for 10 days at which time they are treated with […] glutamate to kill the neurons. Eight days later, cultures are treated with a range of doses of the compound N-[4-[(4-fluorophenyl)sulfonyl]phenyl]acetamide from 0.01 μg/ml to 100 μg/ml. In comparing control cultures and drug treated cultures, an antigenic marker for neuronal progenitor cells, e-NCAM (as detected by immunohistochemical methods), is elevated one week after treatment of the culture with N-[4-[(4-fluorophenyl)sulfonyl]phenyl]-acetamide. […] In contrast, few cells in untreated cultures are observed expressing MAP-II immunoreactivity at 3 weeks post-treatment. […] In control cultures, few cells are observed expressing intense MAP-II and beta-tubulin immunoreactivity. […] This expression pattern represents the normal sequence of events as neuronal cells develop from progenitor cells.
CNS tissue was harvested from embryonic day 18 (E-18) rat pups (Taconic Labs) using sterile technique and was stored in ice cold Hank's Balanced Salt Solution (HBSS-Gibco). Brains were removed from the cranium of 10 embryos, and the meninges removed to expose the underlying cortex. Cortex was isolated from the rest of the brain and stored in ice cold HBSS. After all material was collected, the tissue was minced and trypsinized using 0.1% trypsin (Sigma) for 30 minutes at 37° C. Trypsin action was inhibited by adding 0.5 mg/ml soybean trypsin inhibitor (Gibco). Tissue was rinsed with HBSS and triturated using a flame narrowed Pasteur pipette coated with fetal bovine serum (FBS—Media Tech).
Dissociated cells were counted and plated into 24 well cluster plates in DMEM (MediaTech) plus 10% FBS (Media Tech) at a density of 5×10^5 cells per well. Twenty-four well cluster plates were coated with poly-D-lysine prior to adding cells. Cultures were maintained for 10 days in vitro using a 3-4 day feeding schedule where half the media was removed and replaced with fresh media.
On in vitro day (IVD) 10, glutamate (Gibco) (110 μl of 20 mM added to wells that contained 1 ml of media) was add to all wells except control wells to a final concentration 2 mM. Control wells were fed an equal amount of media minus the L-glutamate. Cultures were maintained for an additional 9 days using a 3-4 feeding schedule. On IVD-18, media was removed and replaced with Neurobasal (Gibco)+B27 supplements (Gibco) and L-glutamine (Media Tech). The next day, IVD-19, N-[4-[(4-fluorophenyl)sulfonyl]phenyl]acetamide dissolved in 2-hydroxypropyl-β-cyclodextrin (Sigma) was added to cultures such that the final concentrations of the compound were either 100 μg/ml, 10 μg/ml, 1 μg/ml and 0.1 μg/ml or 10 μg/ml, 1 μg/ml 0.1 μg/ml and 0.01 μg/ml. Two sets of control wells were included in each experiment. One set of glutamate treated wells received an equal dose of 2-hydroxypropyl-β-cyclodextrin but without N-[4-[(4-fluorophenyl)sulfonyl]phenyl]acetamide. […] After it became apparent that the optimal dose was approximately 0.1 μg/ml to 1 μg/ml N-[4-[(4-fluorophenyl)sulfonyl]phenyl]acetamide, the concentration of drug added to the control wells was reduced to 1 μg/ml.
Cultures were maintained for up to an additional 10 weeks. […]

[2] = tested on: cortical neurons on aged astrocytes; test: Growth of cortical neurons on aged astrocytes, count of tubulin-positive neurons; type: cell-based, Sprague Dawley rat; conditions: 1 week after treatment; for Number of Neurons, Well 2 / Number of Neurons, Well 4: control 74; for Number of Neurons, Well 3: control 89; for Number of Neurons, mean: control 82.50
Experimental: Astrocytes: postnatal day 2 (P2) Sprague Dawley rat cortices were aseptically dissected and trypsinized for 20 min at 37° C. in 0.25% trypsin-EDTA (GIBCO) and DNAse (0.2 mg/ml, Worthington). Enzyme action was stopped by the addition of soybean trypsin inhibitor (SIGMA)) and DNAse. Tissue was dissociated into single cell suspension by trituration with a 5 ml pipette, filtered though a 40 μm nylon filter and centrifuged at 500×g for 3 minutes. The pellet was taken up in medium (DMEM/10% fetal bovine serum) and cells were plated into poly-D-lysine (10 μg/ml, SIGMA) T75 flasks (one flask/cortex). After 23 days, astrocytes were trypsinized and replated at a density of 500,000 cells per well into poly-D-lysine-coated 24 well plates. Cultures were grown for an additional 20 days in order to let astrocytes mature. This maturation is known to make the astrocytes less permissive for neurite outgrowth (see G. M. Smith, et al., Developmental Biology, 138, 377-390 (1990), and G. M. Smith and J. Silver, Progress in Brain Research, Vol. 78, Chapt. 46, D. M. Cash and J. R. Sladek, ed., Elsevier, 1988.
Cortical neurons: mixed cortical cells were dissociated from embryonic day 18 Sprague Dawley rat embryos as described for astrocytes. In order to obtain more pure neuonal cultures, cells were subjected to a differential adhesion by pre-plating them on a non-coated bacterial dish (100 mm diameter) for 1 hour. Non-neuronal cells stick to this plate while neurons stay in the supernatant. Neurons were added to the aged astrocytes at a density of 10,000 cells/well in DEME/10% fetal bovine serum. One day later, the cultures were treated with 1 μg/ml and 10 μg/ml of N-4[4-[(4-fluorophenyl)sulfonyl]phenyl]acetamide. 1 week after treatment, cultures were fixed and immunostained with monoclonal anti-tubulin antibody (SIGMA, 1:800 diluted), followed by rhodamine-conjugated goat-anti-mouse secondary (1:100 dilution). Tubulin labels axons and dentrites.
Analysis: Tubulin-positive cell bodies with a process at least two cell diameters long were counted in 5 visual fields under 10× magnification with a Nikon Eclipse 2000 inverted microscope. Results were expressed as means of quadruplicate wells+/−SEM and are shown in Table I. Any patent application to which this application claims priority is incorporated by reference herein in its entirety.

[3] = 4 weeks post treatment, vs control cultures

CC(=O)Nc1ccc(S(=O)(=O)c2ccc(F)cc2)cc1 [N-[4-[(4-fluorophenyl)sulfonyl]phenyl]acetamide]
MAP-II expression ([1]; 3 weeks post treatment, vs untreated cultures): Low levels of MAP-II expression are also detected at 3 weeks post treatment in a large number of cells
MAP-II immunoreactivity [1, 3]: a large number of cells treated with the compound can be observed expressing intense MAP-II and beta-tubulin immunoreactivity
beta-tubulin immunoreactivity [1, 3]: a large number of cells treated with the compound can be observed expressing intense MAP-II and beta-tubulin immunoreactivity
phosphorylated neurofilament protein (NF-PO4) immunoreactivity ([1]; 6 weeks post treatment, vs untreated cultures): can be observed in numerous neurites
e-NCAM expression (immunohistochemical) ([1]; one week after treatment, drug treated vs control cultures, 0.01 μg/ml to 100 μg/ml): elevated
expression of Low affinity Neuron Growth Factor Receptor ([1]; ten weeks post treatment): show expression of the Low affinity Neuron Growth Factor Receptor
beta-tubulin expression ([1]; three weeks post treatment, vs untreated control cultures): elevated levels of beta-tubulin expression are detected in large numbers of cells
Number of Neurons, Well 2 ([2]; 1 μg/ml): 103
Number of Neurons, Well 4 ([2]; 1 μg/ml): 176
Number of Neurons, Well 3 ([2]; 1 μg/ml): 171
Number of Neurons, Well 1 ([2]; 1 μg/ml, control 93): 132
Number of Neurons, mean ([2]; 1 μg/ml, mean of quadruplicate wells): 145.50
Number of Neurons, Well 2 ([2]; 10 μg/ml): 129
Number of Neurons, Well 4 ([2]; 10 μg/ml): 133
Number of Neurons, Well 3 ([2]; 10 μg/ml): 173
Number of Neurons, mean ([2]; 10 μg/ml, mean of wells): 145.00
